The EC50 is the concentration needed to bring the measured effect to its halfway point.

Common to all, as to assay type: functional, cell-based
Experiment [1] concerns BSC-1. Description: Induction of monopolar mitotic spindles in african green monkey BSC1 cells assessed as kinesin-5 (Eg5) inhibition at 100 uM after 4 hrs. To be noted: Chlorocebus aethiops.
Experiment [2] relates to BSC-1. Kind of experiment: Induction of monopolar mitotic spindles in african green monkey BSC1 cells assessed as percentage of monopolar cells with two centrosomes at 20 uM after 4 hrs. To be noted: Chlorocebus aethiops.
Experiment [3] has as its system BSC-1. Description: Antimitotic activity against african green monkey BSC1 cells assessed as induction of monopolar spindles and two separated astral microtubule array at 20 uM by immunofluorescence microscopy. The note with it: Chlorocebus aethiops.
Experiment [4] deals with BSC-1. Description: Antimitotic activity against african green monkey BSC1 cells assessed as induction of normal spindles at 2.5 uM by immunofluorescence microscopy. The note with it: Chlorocebus aethiops.
For experiment [5], the system named is BSC-1. Description: Induction of deffects in mitotic spindle in african green monkey BSC1 cells at 20 uM after 4 hrs by immunocytochemistry. The note with it: Chlorocebus aethiops.
Experiment [6] relates to BSC-1. Kind of experiment: Antimitotic activity against african green monkey BSC1 cells assessed as induction of monopolar spindles by immunofluorescence microscopy. To be noted: Chlorocebus aethiops.
In experiment [7] the test system is BSC-1. Description: Induction of reduced mitotic index in african green monkey BSC1 cells at 20 uM after 4 hrs by immunocytochemistry. The note with it: Chlorocebus aethiops.
For experiment [8], the system named is BSC-1. Description: Antimitotic activity against african green monkey BSC1 cells assessed as induction of monopolar spindles and spindle pole deffects at 20 uM by immunofluorescence microscopy. The note with it: Chlorocebus aethiops.
Experiment [9] concerns U2OS. Description: Reduction in gamma-tubulin level in centrosomes in human U2OS cells at 250 uM after 4 hrs by immunofluorescence.
For experiment [10], the system named is U2OS. Kind of experiment: Disruption of interphase microtubule organization in human U2OS cells at 250 uM after 4 hrs by immunofluorescence.
Experiment [11] has as its system BSC-1. Kind of experiment: Antimitotic activity against african green monkey BSC1 cells assessed as induction of chromosome alignment deffects at 20 uM by immunofluorescence microscopy. To be noted: Chlorocebus aethiops.
In experiment [12] the test system is BSC-1. Kind of experiment: Induction of severe microtubule disruption in african green monkey BSC1 cells at 20 uM after 4 hrs by immunocytochemistry. To be noted: Chlorocebus aethiops.
In experiment [13] the test system is BSC-1. Kind of experiment: Antimitotic activity against african green monkey BSC1 cells assessed as induction of sphere like organization at 2.5 uM by immunofluorescence microscopy. The note with it: Chlorocebus aethiops.
Experiment [14] concerns BSC-1. Kind of experiment: Antimitotic activity against african green monkey BSC1 cells assessed as induction of monopolar spindles at 20 uM by immunofluorescence microscopy. The note with it: Chlorocebus aethiops.
Experiment [15] has as its system BSC-1. Kind of experiment: Antimitotic activity against african green monkey BSC1 cells assessed as induction of bipolar spindles with decrease in pole to pole distance at 20 uM by immunofluorescence microscopy. To be noted: Chlorocebus aethiops.

Structures are written as SMILES. The source made the active and inactive calls.

With `c1cc(Nc2ccc3c(c2)CCC3)nc(Nc2ccc3ncsc3c2)n1`, the result with BSC-1 [1], with BSC-1 [2], with BSC-1 [3], in the experiment on BSC-1 [4] and in the experiment with BSC-1 [5] was Active. Moreover, in the experiment with BSC-1 [6], the concentration for a half-maximal effect (EC50) was determined as 30 µM.

As to `CCCCNc1nc(Nc2ccc(N3CCN(C)CC3)cc2)ncc1[N+](=O)[O-]`, the outcome with BSC-1 [7] and with BSC-1 [8] was Active.

`COc1cc(OC)c(/C=C/S(=O)(=O)Cc2ccc(OC)c(NCC(=O)O)c2)c(OC)c1`: the result in the experiment with U2OS [9] and in the experiment with U2OS [10] was inactive.

For the compound `c1csc(CNc2nccc(Nc3ccc4c(c3)OCO4)n2)c1`, the result with BSC-1 [5] and in the experiment on BSC-1 [11] was Active.

Turning to `NC(=O)c1ccccc1Nc1nc(NCc2cccs2)ncc1[N+](=O)[O-]`, the outcome in the experiment with BSC-1 [12], in the experiment on BSC-1 [5] and in the experiment on BSC-1 [7] was Active.

Turning to `CCN(CC)CCCC(C)Nc1ncc([N+](=O)[O-])c(NC2CCCC2)n1` (stereo not drawn), the outcome with BSC-1 [12], with BSC-1 [5] and with BSC-1 [7] was Active.

With `O=[N+]([O-])c1cnc(NC2CCCCCC2)nc1Nc1ccc(Cl)c(Cl)c1`, the result in the experiment on BSC-1 [12], in the experiment on BSC-1 [5] and in the experiment on BSC-1 [7] was Active.

In the case of `CC(=O)Nc1ccc(Nc2ccnc(Nc3ccncc3)n2)cc1`, the outcome in the experiment with BSC-1 [12], in the experiment on BSC-1 [5] and in the experiment on BSC-1 [7] was Active.

Turning to `CCCCNc1ncc([N+](=O)[O-])c(Nc2ccccc2C(=O)c2ccccc2)n1`, the outcome in the experiment with BSC-1 [12], in the experiment with BSC-1 [5] and in the experiment with BSC-1 [7] was Active.

Take `O=C(c1ccccc1)c1ccccc1Nc1nc(Nc2ccc3c(c2)CCC3)ncc1[N+](=O)[O-]`: the result in the experiment with BSC-1 [12], with BSC-1 [5] and in the experiment with BSC-1 [7] was Active.

With `O=[N+]([O-])c1cnc(Nc2ccc3ncsc3c2)nc1Nc1ccc(Cl)c(Cl)c1`, the result in the experiment with BSC-1 [12], in the experiment with BSC-1 [5] and with BSC-1 [7] was Active.

Take `CC(C)(Nc1ncc([N+](=O)[O-])c(NC2CCCC2)n1)c1ccccc1`: the outcome in the experiment with BSC-1 [12], in the experiment on BSC-1 [5] and with BSC-1 [7] was Active.

Consider `CC(C)(Nc1ncc([N+](=O)[O-])c(Nc2ccc3ncsc3c2)n1)c1ccccc1`, for which the result with BSC-1 [12], in the experiment with BSC-1 [5] and in the experiment with BSC-1 [7] was Active.

For the compound `O=[N+]([O-])c1cnc(NCc2cccs2)nc1Nc1ccc(Cl)c(Cl)c1`, the outcome in the experiment on BSC-1 [12], with BSC-1 [5] and in the experiment on BSC-1 [7] was Active.

With `O=[N+]([O-])c1cnc(Nc2ccc3ccccc3c2)nc1Nc1ccc(Cl)c(Cl)c1`, the result in the experiment with BSC-1 [12], in the experiment with BSC-1 [5] and in the experiment with BSC-1 [7] was Active.

For the compound `O=C(c1ccccc1)c1ccccc1Nc1nc(NC2CCCC2)ncc1[N+](=O)[O-]`, the result with BSC-1 [12], in the experiment with BSC-1 [5] and with BSC-1 [7] was Active.

Take `CCN(CC)CCCC(C)Nc1ncc([N+](=O)[O-])c(Nc2ccc3ncsc3c2)n1` (stereo not drawn): the outcome in the experiment on BSC-1 [12], with BSC-1 [5] and in the experiment on BSC-1 [7] was Active.

`Clc1ccc(Nc2nccc(Nc3ccc4c(c3)OCO4)n2)cc1Cl`: the outcome with BSC-1 [12], in the experiment on BSC-1 [5] and in the experiment with BSC-1 [7] was Active.

`CN1CCN(c2ccc(Nc3ncc([N+](=O)[O-])c(Nc4ccccc4C(=O)c4ccccc4)n3)cc2)CC1`: the outcome in the experiment on BSC-1 [5], in the experiment with BSC-1 [13] and in the experiment on BSC-1 [14] was Active.

Take `CCCCNc1nc(Nc2ccc(C(C)(C)C)cc2)ncc1[N+](=O)[O-]`: the outcome in the experiment on BSC-1 [12], with BSC-1 [5] and in the experiment on BSC-1 [7] was Active.

Turning to `CC(C)CC(CO)Nc1ncc([N+](=O)[O-])c(Nc2ccc3ncsc3c2)n1` (stereo not drawn), the result with BSC-1 [12], in the experiment with BSC-1 [5] and in the experiment with BSC-1 [7] was Active.

Turning to `CCCCNc1ncc([N+](=O)[O-])c(NC2CCCC2)n1`, the outcome in the experiment on BSC-1 [12], in the experiment with BSC-1 [5] and with BSC-1 [7] was Active.

Turning to `O=[N+]([O-])c1cnc(NC(CO)Cc2ccccc2)nc1Nc1ccc(Cl)c(Cl)c1` (stereo not drawn), the result with BSC-1 [12], in the experiment with BSC-1 [5] and in the experiment on BSC-1 [7] was Active.

Turning to `CC(=O)Nc1ccc(Nc2ccnc(NC(CO)Cc3ccccc3)n2)cc1` (stereo not drawn), the outcome in the experiment on BSC-1 [12], in the experiment on BSC-1 [5] and with BSC-1 [7] was Active.

In the case of `OCC(Cc1ccccc1)Nc1nccc(Nc2ccc3c(c2)OCO3)n1` (stereo not drawn), the result in the experiment with BSC-1 [12], in the experiment on BSC-1 [5] and in the experiment on BSC-1 [7] was Active.

As to `c1ccc(-c2nccn2-c2ccnc(NC3CCCC3)n2)cc1`, the result with BSC-1 [12], in the experiment with BSC-1 [5] and in the experiment on BSC-1 [7] was Active.

`NC(=O)c1ccccc1Nc1nc(NC2CCCCCC2)ncc1[N+](=O)[O-]`: the outcome in the experiment on BSC-1 [12], with BSC-1 [5] and in the experiment on BSC-1 [7] was Active.

In the case of `O=C(c1ccccc1)c1ccccc1Nc1nc(Nc2ccc3c(c2)OCO3)ncc1[N+](=O)[O-]`, the outcome in the experiment on BSC-1 [5] and with BSC-1 [11] was Active.

For the compound `c1cc(Nc2ccc3c(c2)OCO3)nc(Nc2ccc3c(c2)CCC3)n1`, the outcome in the experiment on BSC-1 [15] and in the experiment on BSC-1 [5] was Active.

As to `O=C(c1ccccc1)c1ccccc1Nc1nc(Nc2ccc3ncsc3c2)ncc1[N+](=O)[O-]`, the outcome in the experiment with BSC-1 [12], with BSC-1 [5] and with BSC-1 [7] was Active.

Turning to `O=C(c1ccccc1)c1ccccc1Nc1nc(Nc2ccc(Cl)c(Cl)c2)ncc1[N+](=O)[O-]`, the result in the experiment on BSC-1 [12], in the experiment on BSC-1 [5] and in the experiment with BSC-1 [7] was Active.

Take `O=[N+]([O-])c1cnc(NC2CCCC2)nc1Nc1ccc2[nH]ccc2c1`: the outcome in the experiment on BSC-1 [12], in the experiment with BSC-1 [5] and in the experiment on BSC-1 [7] was Active.

For the compound `CC(=O)Nc1ccc(Nc2ccnc(NCc3cccs3)n2)cc1`, the result in the experiment on BSC-1 [12], with BSC-1 [5] and in the experiment on BSC-1 [7] was Active.

Take `OCC1CCCN1c1nccc(Nc2ccc3c(c2)OCO3)n1` (stereo not drawn): the outcome with BSC-1 [12], with BSC-1 [5] and in the experiment with BSC-1 [7] was Active.

Take `O=[N+]([O-])c1cnc(Nc2ccc3[nH]ccc3c2)nc1NC1CCCC1`: the outcome with BSC-1 [12], with BSC-1 [5] and in the experiment with BSC-1 [7] was Active.
